Measurements as given in patent publication US20110190270A1, “METHODS OF TREATING THROMBOEMBOLIC DISORDERS” (MONASH UNIVERSITY, priority 2008, published 2011).

Columns and labels:
[1] = test system: platelet-mediated fibrin clot retraction in citrated PRP; assay: platelet-mediated fibrin clot retraction; type: cell-based, human; settings: thrombin 1 U/ml, 2-APB 200 μM, EGTA/Mg2+ 2 mM/1 mM, H1152 40 μM, HA1077 80 μM
Experimental: Washed platelets were prepared from acid-citrate dextrose (ACD)-anticoagulated whole blood, with the inclusion of Lepirudin (800 U/ml) in the Platelet Washing Buffer and Apyrase (0.02 U/ml) in the Tyrode's Buffer.
Platelet-mediated fibrin-dependent clot retraction was measured using citrated PRP^9,10. Results are expressed as, the percentage of serum remaining in the tube following clot removal, after subtracting the volumes obtained for c7E3 (negative control) samples.

[2] = test system: thrombi in mesenteric post-capillary venules; assay: intravital microscopy of thrombus growth and stability after vessel injury; type: in vivo, mice; settings: for mean reduction in thrombus size: local administration into the microcirculation after thrombus formation; for mean reduction in thrombus size / effect on thrombus stability and embolization in vivo (in words): needle puncture, no lepirudin; for effect on thrombus stability and embolization in vivo (in words): local microinjection after thrombus formation; for stability of the primary hemostatic plug (in words): mice pretreated with lepirudin 50 mg/kg i.v., local infusion into formed thrombus
Experimental: The development and consolidation of thrombi in response to vessel injury was monitored using intravital microscopy. C57BL6 or PAR4 deficient (15 g-18 g) mice were anaesthetised using sodium pentobarbitone (60 mg/kg), and the mesentery exteriorized through a midline abdominal incision. Body temperature was maintained during the procedure using an infrared heat lamp, and exposed mesenteric vessels (50-160 μm diameter) were hydrated using warm saline. Vessel injury was achieved either through vessel puncture using a microinjection needle (20-30 μm tip diameter) connected to a micromanipulator (Eppendorf), or through application of 6% FeCl3-soaked filter paper (8 sec). Accrual of platelets to the area of injury was recorded in real-time as described for in vitro flow assays (above). […] (25 mM stock solution, 2.5 μl total injection volume), or an equivalent volume of vehicle (DMSO), were locally infused into developing thrombi via the microinjection needle (release rate 2-3 μl/min, 3 cycles). To prevent fibrin generation, in some experiments, lepirudin (50 mg/kg) was administered via intravenous injection prior to induction of injury and subsequent injection of inhibitors. Complete abolition of fibrin formation at this concentration of lepirudin was confirmed by histology using Carstair's stain. The surface area of thrombi in vivo was measured using Image J, with analysis of every 5th frame (at 1 frame/sec) over 4-5 mins. Change in surface area was expressed as fold-increase or decrease over the original surface area (=1).

[3] = test system: platelet thrombi formed from human whole blood; assay: in vitro thrombus consolidation under flow on Type I collagen; type: cell-based; settings: for effect of fibrin/thrombin inhibition on contraction of platelet thrombi (in words): whole blood, 1800 s-1, GPRP 280 μM in native blood, hirudin-anticoagulated, lepirudin 1600 U/ml + enoxaparine 400 U/ml
Experimental: Flow-based thrombus formation assays on a bovine fibrillar Type I collagen matrix were performed at 37° C. in the absence of fibrin. Briefly, […] (DMSO), Blebbistatin (+) (200 μM), Blebbistatin (−) (200 μM), EGTA/Mg^2+ (2 mM/1 mM), HA1077 (80 μM), H1152 (40 μM) or 2-APB (200 μM) (10 mins, 37° C.) prior to perfusion through fibrillar type I collagen-coated microcapillary tubes (2.0 mg/ml) at 1800 s^−1 for 5 mins. Thrombus formation was observed using an inverted Leica DMIRB microscope (Leica Microsystems, Wetzlar, Germany) with a 63× water objective (1.2 numeric aperture (NA)), and recorded in real-time using a Dage-MTI charge-coupled device (CCD) camera 300 ETRCX (Dage-MTI, Michigan City, Ind.).
Two-dimensional quantification of thrombus consolidation—Quantification of thrombus contraction was performed by ‘spiking’ whole blood with 3% DiIC12-labelled platelets prior to perfusion. Spiked whole blood was then perfused over collagen matrices as described above, and DIC/fluorescence images were recorded in real-time as described above, for off-line analysis. Studies examining the effect of 2-APB on consolidation were performed by perfusing untreated whole blood across microslides for 30 seconds to establish a nucleating thrombus, followed by perfusion of inhibitor treated blood. […] The distance between 2 fluorescently-labelled platelets in a given thrombus was measured in […] every 30 sec over 5 min. Results are expressed as percentage decrease in the distance between 2 platelets incorporated into a thrombus prior to 1 minute of flow, with the distance between platelets at 1 minute taken as 100%.
3D volumetric thrombus analysis—For analysis of thrombus volume, whole blood was labelled with DiIC12 (1 μM) prior to perfusion. Thrombi were formed as described above, and images captured in real-time using an inverted Leica DMIRB confocal microscope, with […] sections acquired every 30 seconds over 4-5 min. Analysis of thrombus volume was performed using Metamorph 6 software.

[4] = test system: non-muscle myosin II; settings: read-out: IC50, inhibitor of non-muscle myosin II; cited from earlier work
[5] = test system: occlusive blood clot in the carotid artery; assay: carotid artery occlusion model, clot lysis and vascular reperfusion; type: in vivo, mice; settings: regimens A-H of FIGS. 8 and 9, blood flow monitored 60 minutes
Experimental: Mice were anaesthetised and minor surgery performed to expose to the carotid artery and jugular vein. A Doppler flow probe was placed around the carotid artery to monitor blood flow through this blood vessel, and a catheter placed in the jugular vein to administer drugs. A blood clot was formed in the carotid artery of the mouse through the delivery of a small electric current (4 mA for 1.25 min^g), resulting in complete blockage of blood flow through the vessel (blood flow=0 mls/min), as measured by the flow probe. After vessel blockade was established, various combinations of t-PA, urokinase, heparin, hirudin, HA1077 and Y27632 were administered, using concentrations and regimens indicated (A-H in FIGS. 8 and 9) and examined for their efficacy to dissolve blood clots and restore blood flow. Blood flow was monitored in mice receiving each drug combination for a further 60 minutes, and blood flow measurements recorded using computer software.

[6] = H1152 40 μM, Blebbistatin (−) 200 μM, lepirudin-anticoagulated human whole blood, 1800 s-1
[7] = GPRP added to native whole blood, 1800 s-1

For `Cc1cncc2cccc(S(=O)(=O)N3CCCNC[C@@H]3C)c12.Cl.Cl` [H1152, (S)-(+)-2-methyl-1-[(4-methyl-5-isoquinolinyl)sulfonyl]homopiperazin, 2HCl], the “fibrin clot retraction (in words)” value [1] was “neither inhibitor had any significant effect”, the “mean reduction in thrombus size” value [2] was 34% and the “effect on thrombus stability and embolization in vivo (in words)” value [2] was “more effective than the IP3 receptor antagonist APB”. For the same molecule, the “stability of thrombi formed in vitro (in words)” value [3, 6] was “less stable thrombi” and the “decrease in thrombus contraction” value ([3]; H1152 40 μM, lepirudin-anticoagulated human whole blood, 1800 s-1, after 5 mins perfusion) was 88%.

For `Cc1ccc2c(c1)C(=O)C1(O)CCN(c3ccccc3)C1=N2` (stereo not drawn) [Blebbistatin], the “thrombus behaviour on cessation of administration” value ([2]; after stopping local administration) was “thrombi rapidly reformed”, the “mean reduction in thrombus size” value [2] was 38% and the “stability of the primary hemostatic plug (in words)” value ([2]; listed as active enantiomer of blebbistatin) was “near complete embolization of the formed thrombus”. For the same molecule, the IC50 [4] was ~4 µM, the “stability of thrombi formed in vitro (in words)” value [3, 6] was “highly unstable platelet thrombi” and the “effect on thrombus contraction / consolidation (in words)” value ([3]; HA1077 80 μM, Blebbistatin (−) 200 μM, lepirudin-anticoagulated human whole blood, 1800 s-1) was “tight packing of platelets did not occur”.

For `O=C(O)CN(CCOCCOCCN(CC(=O)O)CC(=O)O)CC(=O)O` [EGTA], the “fibrin clot retraction (in words)” value [1] was “no significant inhibitory effect” and the “reduction of the rate of thrombus contraction” value ([3]; EGTA/Mg2+ 2 mM/1 mM, lepirudin-anticoagulated human whole blood, 1800 s-1, at 5 mins perfusion) was “up to 52%”.

With Gly-Pro-Arg-Pro peptide [GPRP] the “formation of fibrin polymers” value [3, 7] was “inhibited the formation of individual fibrin polymers”, the platelet thrombus growth [3, 7] was “no inhibitory effect” and the “effect of fibrin/thrombin inhibition on contraction of platelet thrombi (in words)” value [3] was “unaltered”.

In the case of lepirudin, the “thrombus stability in the absence of thrombin” value ([2]; wild type mice pretreated with lepirudin 50 mg/kg prior to vessel injury) is reported as “thrombi were more unstable” and the “effect of fibrin/thrombin inhibition on contraction of platelet thrombi (in words)” value [3] is reported as “underwent a prominent contractile phase”.

In the case of `Cl.O=S(=O)(c1cccc2cnccc12)N1CCCNCC1` [HA1077, 1-(5-isoquinolinesulphonyl)-homopiperazine HCl], the “fibrin clot retraction (in words)” value [1] is reported as “neither inhibitor had any significant effect” and the “clot lysis and re-establishment of blood flow (in words)” value [5] is reported as “unable to lyse blood clots and re-establish blood flow”.

For `Cc1ccc2c(c1)C(=O)C1(O)CCN(c3ccccc3)C1=N2` (single isomer, unassigned) [inactive blebbistatin enantiomer], the “effect on thrombus stability and embolization in vivo (in words)” value [2] was “no effect” and the “stability of the primary hemostatic plug (in words)” value [2] was “no adverse effect”.

With `NCCOB(c1ccccc1)c1ccccc1` [2-APB, 2-aminoethoxydiphenyl borate] the “fibrin clot retraction (in words)” value [1] was “abolished clot retraction” and the “reduction of thrombus contraction” value ([3]; 2-APB 200 μM, perfused after 30 sec of untreated blood, lepirudin-anticoagulated human whole blood, 1800 s-1) was 32%.
